Assay results as given in paper PMC4574636 (Biochemical pharmacology, 2015).
Where two headings read alike, the source gives them in different places. Each block holds one molecule with its values, some of them ahead of it.

Columns and labels:
aldehyde oxidase (AOX) [1] = assay: Metabolism kinetics of DACA and phthalazine in rabbit cytosol; conditions: for kcat: rabbit cytosol
aldehyde oxidase (AOX) [2] = test system: aldehyde oxidase (AOX)
aldehyde oxidase (AOX) [3] = target: T1, aldehyde oxidase (AOX) (Homo sapiens, UniProt Q06278)
T1 sequence (Q06278 1-1338): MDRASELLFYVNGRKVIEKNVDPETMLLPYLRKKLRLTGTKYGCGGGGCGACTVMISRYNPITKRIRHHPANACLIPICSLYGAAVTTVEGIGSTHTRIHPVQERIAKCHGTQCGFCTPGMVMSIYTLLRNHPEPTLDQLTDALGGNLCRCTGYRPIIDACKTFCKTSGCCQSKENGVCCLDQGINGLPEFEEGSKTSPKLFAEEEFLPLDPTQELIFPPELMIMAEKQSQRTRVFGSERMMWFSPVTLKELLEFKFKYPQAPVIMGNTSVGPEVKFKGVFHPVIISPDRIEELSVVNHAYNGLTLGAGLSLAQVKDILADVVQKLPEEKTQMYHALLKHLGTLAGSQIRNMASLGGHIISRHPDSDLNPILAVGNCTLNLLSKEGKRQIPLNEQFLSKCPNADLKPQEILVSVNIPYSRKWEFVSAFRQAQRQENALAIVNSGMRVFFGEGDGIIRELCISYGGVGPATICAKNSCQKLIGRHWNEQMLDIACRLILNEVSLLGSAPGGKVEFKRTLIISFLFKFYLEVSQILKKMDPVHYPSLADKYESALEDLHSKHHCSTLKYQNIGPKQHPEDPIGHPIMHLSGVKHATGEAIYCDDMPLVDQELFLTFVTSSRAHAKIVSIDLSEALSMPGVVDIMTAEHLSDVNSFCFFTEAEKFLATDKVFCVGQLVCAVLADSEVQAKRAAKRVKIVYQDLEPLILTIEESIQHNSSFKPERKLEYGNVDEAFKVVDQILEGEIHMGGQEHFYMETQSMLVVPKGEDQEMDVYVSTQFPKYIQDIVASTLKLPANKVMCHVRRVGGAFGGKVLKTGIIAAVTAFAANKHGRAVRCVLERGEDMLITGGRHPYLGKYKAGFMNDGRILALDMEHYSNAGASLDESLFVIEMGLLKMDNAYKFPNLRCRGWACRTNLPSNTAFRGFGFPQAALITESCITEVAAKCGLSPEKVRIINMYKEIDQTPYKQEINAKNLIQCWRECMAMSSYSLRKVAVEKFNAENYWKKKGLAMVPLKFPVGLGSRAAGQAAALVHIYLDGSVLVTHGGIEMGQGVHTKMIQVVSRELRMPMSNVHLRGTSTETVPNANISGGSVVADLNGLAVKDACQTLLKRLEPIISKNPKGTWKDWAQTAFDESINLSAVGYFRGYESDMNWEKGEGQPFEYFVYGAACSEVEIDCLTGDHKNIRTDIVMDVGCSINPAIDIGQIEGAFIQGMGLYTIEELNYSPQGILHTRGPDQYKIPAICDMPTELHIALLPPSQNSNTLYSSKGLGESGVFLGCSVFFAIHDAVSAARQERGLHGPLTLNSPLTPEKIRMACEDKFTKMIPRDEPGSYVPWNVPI

aldehyde oxidase (AOX) [4] = target: T1, aldehyde oxidase (AOX); assay: Metabolism kinetics of DACA and phthalazine in human cytosol
[5] = substrate: CN(Cc1cnc2nc(N)nc(N)c2n1)c1ccc(C(=O)N[C@@H](CCC(=O)O)C(=O)O)cc1
[6] = substrate: c1ccc2cnncc2c1; assay: cells, lysate or membranes named; conditions: other: human cytosol; unit not given

- Km (aldehyde oxidase (AOX) [1]; New Zealand, rabbit, cytosol): 23 µM
- kcat (aldehyde oxidase (AOX) [1]): 16,000 min^−1
Molecule: c1ccc2cnncc2c1 [phthalazine]

- Km (aldehyde oxidase (AOX) [2]): 2 µM
- Km (aldehyde oxidase (AOX) [3]): 7 µM
- kcat (aldehyde oxidase (AOX) [4]): 2.22 s⁻¹
- kcat (aldehyde oxidase (AOX) [1]): 182 min⁻¹
Molecule: CN(C)CCNC(=O)c1cccc2cc3ccccc3nc12 [DACA]

B1: AOX1 (Homo sapiens) (protein)
chain: MDRASELLFYVNGRKVIEKNVDPETMLLPYLRKKLRLTGTKYGCGGGGCGACTVMISRYNPITKRIRHHPANACLIPICSLYGAAVTTVEGIGSTHTRIHPVQERIAKCHGTQCGFCTPGMVMSIYTLLRNHPEPTLDQLTDALGGNLCRCTGYRPIIDACKTFCKTSGCCQSKENGVCCLDQGINGLPEFEEGSKTSPKLFAEEEFLPLDPTQELIFPPELMIMAEKQSQRTRVFGSERMMWFSPVTLKELLEFKFKYPQAPVIMGNTSVGPEVKFKGVFHPVIISPDRIEELSVVNHAYNGLTLGAGLSLAQVKDILADVVQKLPEEKTQMYHALLKHLGTLAGSQIRNMASLGGHIISRHPDSDLNPILAVGNCTLNLLSKEGKRQIPLNEQFLSKCPNADLKPQEILVSVNIPYSRKWEFVSAFRQAQRQENALAIVNSGMRVFFGEGDGIIRELCISYGGVGPATICAKNSCQKLIGRHWNEQMLDIACRLILNEVSLLGSAPGGKVEFKRTLIISFLFKFYLEVSQILKKMDPVHYPSLADKYESALEDLHSKHHCSTLKYQNIGPKQHPEDPIGHPIMHLSGVKHATGEAIYCDDMPLVDQELFLTFVTSSRAHAKIVSIDLSEALSMPGVVDIMTAEHLSDVNSFCFFTEAEKFLATDKVFCVGQLVCAVLADSEVQAKRAAKRVKIVYQDLEPLILTIEESIQHNSSFKPERKLEYGNVDEAFKVVDQILEGEIHMGGQEHFYMETQSMLVVPKGEDQEMDVYVSTQFPKYIQDIVASTLKLPANKVMCHVRRVGGAFGGKVLKTGIIAAVTAFAANKHGRAVRCVLERGEDMLITGGRHPYLGKYKAGFMNDGRILALDMEHYSNAGASLDESLFVIEMGLLKMDNAYKFPNLRCRGWACRTNLPSNTAFRGFGFPQAALITESCITEVAAKCGLSPEKVRIINMYKEIDQTPYKQEINAKNLIQCWRECMAMSSYSLRKVAVEKFNAENYWKKKGLAMVPLKFPVGLGSRAAGQAAALVHIYLDGSVLVTHGGIEMGQGVHTKMIQVVSRELRMPMSNVHLRGTSTETVPNANISGGSVVADLNGLAVKDACQTLLKRLEPIISKNPKGTWKDWAQTAFDESINLSAVGYFRGYESDMNWEKGEGQPFEYFVYGAACSEVEIDCLTGDHKNIRTDIVMDVGCSINPAIDIGQIEGAFIQGMGLYTIEELNYSPQGILHTRGPDQYKIPAICDMPTELHIALLPPSQNSNTLYSSKGLGESGVFLGCSVFFAIHDAVSAARQERGLHGPLTLNSPLTPEKIRMACEDKFTKMIPRDEPGSYVPWNVPI
- Km [5]: 2800 µM
- Vmax [5]: 40 to 70 pmol/min/mg
- kcat/Km [5]: 15 M⁻¹ s⁻¹

B2: aldehyde oxidase (AOX) (Homo sapiens) (protein)
chain: MDRASELLFYVNGRKVIEKNVDPETMLLPYLRKKLRLTGTKYGCGGGGCGACTVMISRYNPITKRIRHHPANACLIPICSLYGAAVTTVEGIGSTHTRIHPVQERIAKCHGTQCGFCTPGMVMSIYTLLRNHPEPTLDQLTDALGGNLCRCTGYRPIIDACKTFCKTSGCCQSKENGVCCLDQGINGLPEFEEGSKTSPKLFAEEEFLPLDPTQELIFPPELMIMAEKQSQRTRVFGSERMMWFSPVTLKELLEFKFKYPQAPVIMGNTSVGPEVKFKGVFHPVIISPDRIEELSVVNHAYNGLTLGAGLSLAQVKDILADVVQKLPEEKTQMYHALLKHLGTLAGSQIRNMASLGGHIISRHPDSDLNPILAVGNCTLNLLSKEGKRQIPLNEQFLSKCPNADLKPQEILVSVNIPYSRKWEFVSAFRQAQRQENALAIVNSGMRVFFGEGDGIIRELCISYGGVGPATICAKNSCQKLIGRHWNEQMLDIACRLILNEVSLLGSAPGGKVEFKRTLIISFLFKFYLEVSQILKKMDPVHYPSLADKYESALEDLHSKHHCSTLKYQNIGPKQHPEDPIGHPIMHLSGVKHATGEAIYCDDMPLVDQELFLTFVTSSRAHAKIVSIDLSEALSMPGVVDIMTAEHLSDVNSFCFFTEAEKFLATDKVFCVGQLVCAVLADSEVQAKRAAKRVKIVYQDLEPLILTIEESIQHNSSFKPERKLEYGNVDEAFKVVDQILEGEIHMGGQEHFYMETQSMLVVPKGEDQEMDVYVSTQFPKYIQDIVASTLKLPANKVMCHVRRVGGAFGGKVLKTGIIAAVTAFAANKHGRAVRCVLERGEDMLITGGRHPYLGKYKAGFMNDGRILALDMEHYSNAGASLDESLFVIEMGLLKMDNAYKFPNLRCRGWACRTNLPSNTAFRGFGFPQAALITESCITEVAAKCGLSPEKVRIINMYKEIDQTPYKQEINAKNLIQCWRECMAMSSYSLRKVAVEKFNAENYWKKKGLAMVPLKFPVGLGSRAAGQAAALVHIYLDGSVLVTHGGIEMGQGVHTKMIQVVSRELRMPMSNVHLRGTSTETVPNANISGGSVVADLNGLAVKDACQTLLKRLEPIISKNPKGTWKDWAQTAFDESINLSAVGYFRGYESDMNWEKGEGQPFEYFVYGAACSEVEIDCLTGDHKNIRTDIVMDVGCSINPAIDIGQIEGAFIQGMGLYTIEELNYSPQGILHTRGPDQYKIPAICDMPTELHIALLPPSQNSNTLYSSKGLGESGVFLGCSVFFAIHDAVSAARQERGLHGPLTLNSPLTPEKIRMACEDKFTKMIPRDEPGSYVPWNVPI
- kcat [6]: 4.37 s⁻¹

B3: AOX1 (Macaca mulatta) (protein)
chain: MDRASELLFYVNGRKVIEKNVDPETMLLPYLRKKLRLTGTKYGCGGGGCGACTVMISRYNPITNRIRHHPANACLIPICSLYGTAVTTVEGIGSTHTRIHPVQERIAKCHGTQCGFCTPGMVMSIYTLLRNHPEPTLDQLTDALGGNLCRCTGYRPIIDACKTFCETSGCCQSKENGVCCLDQGINGLPEFEEGSKTSPKLFAEEEFLPLDPTQELIFPPELMIMAEKQPQRTRVFGSERMMWFSPVTLKELLEFKFKYPQAPVIMGNTSVGPQVKFKGVFHPVIISPDRIEELSVVNRTHNGLTLGAGLSLAQVKDILADVVQKLPEEKTQTYHALLKHLGTLAGSQIRNMASLGGHIISRHPDSDLNPILAVGNCTLNLLSKEGKRQIPLNEQFLSKCPNADLKPQEILVSVNIPYSRKLEFVSAFRQAQRQENALAIVNSGMRVFFGEGHGIIRELSISYGGVGPATICAKNSCQKLIGRHWNEEMLDTACRLVLEEVSLSGSAPGGKVEFKRTLIISFLFKFYLEVSQILKKMDPIHYPSLADKYESALEDLHSKHHCSTLKYQHMGPKQHPEDPIGHPIMHLSGVKHATGEAIYCDDMPPVDQELFLTFVTSSRAHAKIVSIDLSEALSMPGVVDVITAEHLSDVNSFCFFTEAEEFLATDKVFCVGQLVCAVLADSEVQAKQAAKQVKIVYQDLEPLILTIKEAIQHNSFFEPERKLEYGNVDEAFKVVDQILEGEIHMGGQEHFYMETQSMLVVPKGEDQEMDVYVSTQFPKYIQDIVASTLKLPANKVMCHVKRVGGAFGGKAFKTGVIAAVTAFAANKHGRAVRCVLERGEDMLITGGRHPYLGKYKAGFMNDGRILALDMEHYSNAGNSLDESLLVIEMGLLKMDNAYKFPNLRCRGWACRTNLPSNTAFRGFGFPQAGLITESCIMEVAAKCGLSPEKVRMINMYKEIDQTPYKQEINAKNLIQCWRECMAVSSYSLRKAAVEKFNAENYWKKKGLAMVPLKYPVGLGSRAAGQAAALVHIYLDGSVLVTHGGIEMGQGVHTKMIQVVSRELGMPISNVHLRGTSTETVPNANVSGGSVVADLNGLAVKDACQILLKRLEPIISKNPKGTWKDWAQTAFDESISLSAVGYFRGYESDINWEKGEGHPFEYFVYGAACSEVEIDCLTGDHKNIRTDIVMDVGCSINPAIDIGQIEGAFIQGMGLYTIEELNYSPQGVLHTRGPDQYKIPAICDTPTEFHISLLPPSENSNTLYSSKGLGESGVFLGCSVFFAIHDAVSAARRERGLHGPLSLNSPLTPEKIRMACEDKFTKMIPRDEPGSCVPWNVPI
- Km [5]: 323 ± 123 µM
